SMILES strings stand for the structures.

One data set has as its target T1, CCR9 (Homo sapiens, UniProt P51686).
T1 construct: CCR9-expressing cells (such as a T cell line MOLT-4 cells); host or cells: MOLT-4
T1 sequence (P51686 1-369): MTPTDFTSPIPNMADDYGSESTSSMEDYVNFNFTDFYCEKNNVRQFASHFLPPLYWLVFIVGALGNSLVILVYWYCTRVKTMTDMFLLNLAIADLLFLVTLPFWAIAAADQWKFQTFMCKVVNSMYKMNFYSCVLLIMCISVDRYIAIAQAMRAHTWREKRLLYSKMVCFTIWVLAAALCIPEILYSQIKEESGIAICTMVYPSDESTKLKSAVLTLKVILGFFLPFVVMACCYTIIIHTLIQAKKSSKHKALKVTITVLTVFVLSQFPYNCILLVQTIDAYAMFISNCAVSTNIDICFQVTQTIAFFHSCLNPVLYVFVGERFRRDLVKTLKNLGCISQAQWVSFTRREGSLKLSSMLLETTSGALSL
The experiment in a line: chemotaxis (conventional migration) assay and/or calcium mobilization (calcium flux) assay, TECK-stimulated MOLT-4 cells. It is filed as cell-based. As to conditions: TECK-induced migration and/or calcium signal, read-out: activity (IC50) in either or both of the chemotaxis assay and calcium mobilization assays. On the procedure:
MOLT-4 cells were obtained from the American Type Culture Collection (Manassas, Va.) and cultured in RPMI tissue culture medium supplemented with 10% fetal calf serum (FCS) in a humidified 5% CO2 incubator at 37° C. Recombinant human chemokine protein TECK was obtained from R&D Systems (Minneapolis, Minn.). ChemoTX® chemotaxis microchambers were purchased from Neuro Probe (Gaithersburg, Md.). CyQUANT® cell proliferation kits were purchased from Molecular Probes (Eugene, Oreg.). Calcium indicator dye Fluo-4 AM was purchased from Molecular Devices (Mountain View, Calif.).
Conventional migration assay was used to determine the efficacy of potential receptor antagonists in blocking migration mediated through CCR9. This assay was routinely performed using the ChemoTX® microchamber system with a 5-μm pore-sized polycarbonate membrane. To begin such an assay, MOLT-4 cells were harvested by centrifugation of cell suspension at 1000 PRM on a GS-6R Beckman centrifuge. The cell pellet was resuspended in chemotaxis buffer (HBSS with 0.1% BSA) at 5×10^6 cells/mL. Test compounds at desired concentrations were prepared from 10 mM stock solutions by serial dilutions in chemotaxis buffer. An equal volume of cells and compounds were mixed and incubated at room temperature for 15 minutes. Afterwards, 20 μL of the mixture was transferred onto the porous membrane of a migration microchamber, with 29 μL of 50 nM chemokine TECK protein placed at the lower chamber. Following a 150-minute incubation at 37° C., during which cells migrated against the chemokine gradient, the assay was terminated by removing the cell drops from atop the filter. To quantify cells migrated across the membrane, 5 μL of 7X CyQUANT® solution was added to each well in the lower chamber, and the fluorescence signal measured on a Spectrafluor Plus fluorescence plate reader (TECAN, Durham, N.C.). The degree of inhibition was determined by comparing migration signals between compound-treated and untreated cells. IC50 calculation was further performed by non-linear squares regression analysis using Graphpad Prism (Graphpad Software, San Diego, Calif.).
Calcium flux assay measures an increase in intracellular calcium following ligand-induced receptor activation. In the screen of CCR9 antagonists, it was used as a secondary assay carried out on a FLIPR® machine (Molecular Devices, Mountain View, Calif.). To begin an assay, MOLT-4 cells were harvested by centrifugation of cell suspension, and resuspended to 1.5×10^6 cells/mL in HBSS (with 1% fetal calf serum). Cells were then labeled with a calcium indicator dye Fluo-4 AM for 45 minutes at 37° C. with gentle shaking. Following incubation, cells were pelletted, washed once with HBSS and resuspended in the same buffer at a density of 1.6×10^6 cells/mL. One hundred microliters of labeled cells were mixed with […] of test compound at the appropriate concentrations on an assay plate. Chemokine protein TECK was added at a final concentration of 25 nM to activate the receptor. The degree of inhibition was determined by comparing calcium signals between compound-treated and untreated cells. IC50 calculations were further performed by non-linear squares regression analysis using Graphpad Prism (Graphpad Software, San Diego, Calif.).
In the table below, structures and activity are provided for representative compounds described herein. Activity is provided as follows for either or both of the chemotaxis assay and/or calcium mobilization assays, described above: + 1000 nM<IC50<10000 nM; ++, 100 nM<IC50<1000 nM; and +++, IC50<100 nM.
(Calcium assays in cells follow changes in intracellular calcium, usually with a dye or a luminescent sensor.)
As to `O=C(c1ccccc1)c1cc(Br)ccc1NS(=O)(=O)c1ccc(-c2cocn2)cc1`, the IC50 (commonly the concentration at which inhibition is half-maximal) was less than 100 nM.
Regarding `CC(=O)Nc1ccc(S(=O)(=O)Nc2ccc(Cl)cc2C(=O)c2ccccc2)cc1Cl`, the IC50 lay within 100 to 1000 nM.
On the same count and under the same terms, the figure for `O=C(c1ccccc1)c1cc(Cl)ccc1NS(=O)(=O)c1ccc(Cl)c(Cl)c1` is 1000 to 10000 nM; for `COc1ccc(S(=O)(=O)Nc2ccc(Cl)cc2C(=O)c2ccccc2F)cc1` it is 1000 to 10000 nM.
Still for that read-out and setting: the figure for `COc1ccc(S(=O)(=O)Nc2ccc(Br)cc2C(=O)c2ccccc2)cc1` is less than 100 nM; for `O=C(c1ccccc1)c1cc(Cl)ccc1NS(=O)(=O)c1ccc(Cl)cc1Cl` it is 1000 to 10000 nM; for `CC(C)(C)c1ccc(S(=O)(=O)Nc2ccc(Br)cc2C(=O)c2ccccc2)cc1` it is less than 100 nM.
On the same count and under the same terms, the figure for `COc1cccc(S(=O)(=O)Nc2ccc(Cl)cc2C(=O)c2ccccc2)c1` is 1000 to 10000 nM; for `CC(C)c1ccc(S(=O)(=O)Nc2ccc(Cl)cc2C(=O)c2ccccc2)cc1` it is 100 to 1000 nM; for `O=C(c1ccccc1)c1cc(Cl)ccc1NS(=O)(=O)c1ccc(Nc2cccnc2)cc1` it is 100 to 1000 nM.
As for `CCCCOc1ccc(S(=O)(=O)Nc2ccc(Cl)cc2C(=O)c2ccccc2)cc1`, the IC50 fell in the range of 1000 to 10000 nM.
Still for that read-out and setting: the figure for `O=C(c1ccccc1)c1cc(Cl)ccc1NS(=O)(=O)c1ccc2c(c1)CCO2` is 100 to 1000 nM; for `O=C(c1ccccc1)c1cc(Cl)ccc1NS(=O)(=O)c1ccc(F)cc1` it is 100 to 1000 nM; for `CCc1ccc(S(=O)(=O)Nc2ccc(Cl)cc2C(=O)c2ccccc2)cc1` it is less than 100 nM.
In the case of `O=C(c1ccccc1)c1cc(Cl)ccc1NS(=O)(=O)c1ccc(-n2cccn2)cc1`, the 50% inhibitory concentration (IC50) lay in the range of 100 to 1000 nM.
On the same count and under the same terms, then `CCC(C)(C)c1ccc(S(=O)(=O)Nc2ccc(Cl)cc2C(=O)c2ccccc2)cc1`, with less than 100 nM.
As for `CC(C)(C)c1ccc(S(=O)(=O)Nc2cc(Cl)ccc2C(=O)c2ccccc2)cc1`, the half-maximal inhibitory concentration (IC50) is less than 100 nM.
Same read-out and setting: the figure for `CC(C)(C)c1ccc(S(=O)(=O)Nc2ccc(Cl)cc2C(=O)c2ccccc2)cc1` is less than 100 nM.
The same measure, in the same setting: then `CC(=O)Nc1ccc(S(=O)(=O)Nc2ccc(Cl)cc2C(=O)c2ccccc2)cc1`, with 100 to 1000 nM; and `COc1ccc(S(=O)(=O)Nc2ccc(Cl)cc2C(=O)c2ccccc2)cc1` [drawing 93], with less than 100 nM; and `O=C(c1ccccc1)c1cc(Cl)ccc1NS(=O)(=O)c1ccc(Br)cc1`, with 100 to 1000 nM.
Same read-out and setting: the figure for `O=C(c1ccccc1)c1cc(Cl)ccc1NS(=O)(=O)c1ccc(-c2cnco2)cc1` is less than 100 nM; for `CC(=O)c1ccc(S(=O)(=O)Nc2ccc(Br)cc2C(=O)c2ccccc2)cc1` it is less than 100 nM; for `O=C(c1ccccc1)c1cc(Cl)ccc1NS(=O)(=O)c1ccc(C(F)(F)F)cc1` it is less than 100 nM.
For `CC(C)(C)c1ccc(S(=O)(=O)Nc2ccc(Cl)cc2C(=O)c2ccc(F)cc2)cc1`, the IC50 lay in the range of 100 to 1000 nM.
On the same count and under the same terms, then `COC(=O)CCc1ccc(S(=O)(=O)Nc2ccc(Cl)cc2C(=O)c2ccccc2)cc1`, with less than 100 nM.
Still for that read-out and setting: then `CC(=O)c1ccc(S(=O)(=O)Nc2ccc(Cl)cc2C(=O)c2ccccc2)cc1`, with less than 100 nM.
On the same count and under the same terms, then `C=Cc1ccc(S(=O)(=O)Nc2ccc(Cl)cc2C(=O)c2ccccc2)cc1`, with less than 100 nM; and `COc1ccc(-c2ccc(S(=O)(=O)Nc3ccc(Cl)cc3C(=O)c3ccccc3)cc2)cc1`, with 1000 to 10000 nM; and `O=C(c1ccccc1)c1cc(Cl)ccc1NS(=O)(=O)c1ccc(-c2cccs2)cc1`, with 100 to 1000 nM.
In the case of `O=C(c1ccccc1)c1cc(Cl)ccc1NS(=O)(=O)c1cccc(C(F)(F)F)c1`, the IC50 fell in the range of 1000 to 10000 nM.
As for `O=C(c1ccccc1)c1cc(Cl)ccc1NS(=O)(=O)c1cccc(F)c1`, the IC50 fell in the range of 100 to 1000 nM.
Still for that read-out and setting: then `COc1ccc(S(=O)(=O)Nc2ccc(F)cc2C(=O)c2ccccc2)cc1`, with less than 100 nM.
For `CCc1ccc(S(=O)(=O)Nc2ccc(Br)cc2C(=O)c2ccccc2)cc1`, the IC50 was less than 100 nM.
The same measure, in the same setting: then `CC(C)Oc1ccc(S(=O)(=O)Nc2ccc(Cl)cc2C(=O)c2ccccc2)cc1`, with less than 100 nM; and `O=C(c1ccccc1)c1cc(Cl)ccc1NS(=O)(=O)c1ccccc1F`, with 1000 to 10000 nM.
Same read-out and setting: then `O=C(c1ccccc1)c1cc(Cl)ccc1NS(=O)(=O)c1ccc(I)cc1`, with less than 100 nM; and `O=C(c1ccccc1)c1cc(Cl)ccc1NS(=O)(=O)c1ccc(C#Cc2ccccc2)cc1`, with 100 to 1000 nM; and `N#Cc1ccc(S(=O)(=O)Nc2ccc(Cl)cc2C(=O)c2ccccc2)cc1`, with 100 to 1000 nM.
On the same count and under the same terms, then `COc1ccc(OC)c(S(=O)(=O)Nc2ccc(Cl)cc2C(=O)c2ccccc2)c1`, with 1000 to 10000 nM; and `CCCCc1ccc(S(=O)(=O)Nc2ccc(Cl)cc2C(=O)c2ccccc2)cc1`, with 100 to 1000 nM.
As to `COc1ccc(S(=O)(=O)Nc2cc(Br)ccc2C(=O)c2ccccc2)cc1`, the IC50 was in the range of 100 to 1000 nM.
On the same count and under the same terms, the figure for `N#Cc1cccc(S(=O)(=O)Nc2ccc(Cl)cc2C(=O)c2ccccc2)c1` is 100 to 1000 nM; for `O=C(c1ccccc1)c1cc(Cl)ccc1NS(=O)(=O)c1ccc(OC(F)(F)F)cc1` it is less than 100 nM; for `COc1ccc(S(=O)(=O)Nc2ccc(OC)cc2C(=O)c2ccccc2)cc1` it is 1000 to 10000 nM.
As for `CS(=O)(=O)c1ccc(S(=O)(=O)Nc2ccc(Cl)cc2C(=O)c2ccccc2)cc1`, the IC50 was less than 100 nM.

The next data set has as its system MDR1α-knockout mice. Kind of data set: in vivo efficacy study in MDR1α-knockout mice (spontaneous colitis, delay of disease onset). Conditions: female MDR1α-knockout mice, 50 mg/kg twice a day intraperitoneal, 14 consecutive days. The source says: The MDR1α-knockout mice, which lack the P-glycoprotein gene, spontaneously develop colitis under specific pathogen-free condition. The pathology in these animals has been characterized as Th1-type T cell-mediated inflammation similar to ulcerative colitis in humans. Disease normally begins to develop at around 8-10 weeks after birth. But the ages at which disease emerges and the ultimate penetrance level often vary considerably among different animal facilities.
In a study using the MDR1α-knockout mice, the known compound shown below was tested for its ability to delay disease onset during a short treatment regimen.
This compound is structurally similar to the claimed modulators (I) of the present invention. Female mice (n=15) were dosed with 50 mg/kg twice a day by intraperitonial injection, starting at age 13 weeks for 14 consecutive days. The study was terminated when the mice reached age 17 weeks at which point the disease penetrance level measured by diarrhea incidence reached 55%. […] This protection extended one to two weeks after treatment stopped (FIG. 1).
In the case of `COc1ccc(S(=O)(=O)Nc2ccc(Cl)cc2C(=O)c2ccccc2)cc1` [drawing 79], the “duration of protection after treatment stopped” value is listed as “one to two”.

The same data set, now with this note: female MDR1α-knockout mice, 50 mg/kg twice a day intraperitoneal, 14 consecutive days from age 13 weeks.
As for `COc1ccc(S(=O)(=O)Nc2ccc(Cl)cc2C(=O)c2ccccc2)cc1` [drawing 79], the tolerability entry is “well tolerated”.

Still in this data set, the particulars now being: female MDR1α-knockout mice, 50 mg/kg twice a day intraperitoneal, 14 consecutive days from age 13 weeks; compared with vehicle.
For the molecule `COc1ccc(S(=O)(=O)Nc2ccc(Cl)cc2C(=O)c2ccccc2)cc1` [drawing 79], the “onset of IBD symptoms (diarrhea incidence)” value is “significant delay in the onset of IBD symptoms”.
